# Results: patent US7803792B2, “Quaternary ammonium compounds” (Asahi Kasei Pharma Corporation, priority 2002, dated 2010)
# Target: T1, human IBAT (Homo sapiens, UniProt Q12908)
# T1 construct: expressed in transfected cells; host or cells: Cos 7
# T1 sequence (Q12908 1-348): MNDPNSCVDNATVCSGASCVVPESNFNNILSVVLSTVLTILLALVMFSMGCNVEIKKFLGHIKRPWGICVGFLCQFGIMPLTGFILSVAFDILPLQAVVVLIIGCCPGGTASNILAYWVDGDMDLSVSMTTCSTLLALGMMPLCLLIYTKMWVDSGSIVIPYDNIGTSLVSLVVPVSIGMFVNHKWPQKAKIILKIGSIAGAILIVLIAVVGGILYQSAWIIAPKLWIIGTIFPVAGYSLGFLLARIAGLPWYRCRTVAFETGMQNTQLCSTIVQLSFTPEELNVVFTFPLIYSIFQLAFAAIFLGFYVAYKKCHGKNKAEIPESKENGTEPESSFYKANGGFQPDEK
# Assay: In vitro assay of temporarily expressed human IBAT transporter using Cos 7 cells (Test Example 8)
# Format: cell-based
# Details: Cos 7 cells temporarily expressing human IBAT; [3H] taurocholate 8 μM, 37° C., 60 minutes
# Method: In Vitro Assay of Compounds Which Inhibit Temporarily Expressed Human IBAT Transporter or Rat IBAT Transporter Using Cos 7 Cells
# In this test example, the in vitro assay of the compounds which inhibit temporarily expressed human IBAT transporter or rat IBAT transporter using Cos cells was carried out according to the method described in Am. J. Physiol., 274, G157-169.
# That is, […] Cos 7 were inoculated on a 24-well cell plate. One day later, 0.3 μg per well of cDNA of a human IBAT or a rat IBAT was transfected by using FuGENE6 (manufactured by ROCHE PHARMACEUTICAL CO., LTD.). For the assay, the cells cultured for one day after the transfection were used and the following procedure was followed. The cells were washed once with an assay buffer, Hank's buffer solution containing 25 mM glucose and with 10 mM HEPES (pH 7.4), and then the assay buffer was replaced by an assay buffer to which the test compound was added. After adding [^3H] taurocholate to a final concentration of 8 μM, the cells were incubated at 37° C. for 60 minutes. [^3H] taurocholate was allowed to be incorporated in Cos 7 cells through human IBAT or rat IBAT. The reaction was stopped by washing twice with a buffer prepared by adding 1 mM taurocholate to the assay buffer and lyzing the cells with 0.2M NaOH. Measurement of radioactivity was carried out by introducing the cell lyzate in 4 ml of liquid scintillation cocktail, stirring the mixture well, and then measuring the radioactivity by a scintillation counter.
row,IC50 [nM],Structure (SMILES)
1,91,C=CC[N+](CC)(CC)Cc1cccc(NC(=S)Nc2cccc(C3NC(CCCC)(CCCC)CS(=O)(=O)c4ccc(N(C)C)cc43)c2)c1 (stereo not shown) [Example 4247]
2,82,CCCCC1(CCCC)CS(=O)(=O)c2ccc(N(C)C)cc2C(c2cccc(NC(=S)Nc3cccc(C[n+]4cccc(-c5cccs5)c4)c3)c2)N1 (stereo not shown) [Example 4543]
3,72,CCCCC1(CCCC)CS(=O)(=O)c2ccc(N(C)C)cc2C(c2cccc(NC(=S)Nc3ccc(C[N+]45CCC(CC4)C(=O)C5)cc3)c2)N1 (stereo not shown) [Example 3698]
4,89,CCCCC(CCCC)c1cc[n+](Cc2ccc(NC(=S)Nc3cccc(C4NC(CCCC)(CCCC)CS(=O)(=O)c5ccc(N(C)C)cc54)c3)cc2)cc1 (stereo not shown) [Example 3716]
5,78,CCCCC1(CCCC)CS(=O)(=O)c2ccc(N(C)C)cc2C(c2cccc(NC(=S)Nc3cccc(C[n+]4cccc5ccccc54)c3)c2)N1 (stereo not shown) [Example 4585]
6,97,CCCCC1(CCCC)CS(=O)(=O)c2ccc(N(C)C)cc2C(c2cccc(NC(=S)Nc3cccc(C[N+]45CCN(CC4)CC5)c3)c2)N1 (stereo not shown) [Example 4522]
7,85,CCCCC1(CCCC)CS(=O)(=O)c2ccc(N(C)C)cc2C(c2cccc(NC(=S)Nc3ccc(C[N+](C)(C)C(C)c4ccccc4)cc3)c2)N1 (stereo not shown) [Example 3441]
8,69,CCCCC1(CCCC)CS(=O)(=O)c2ccc(N(C)C)cc2C(c2cccc(NC(=S)Nc3ccc(C[n+]4cccc(-c5ccccc5)c4)cc3)c2)N1 (stereo not shown) [Example 3724]
9,50,CCCCC1(CCCC)CS(=O)(=O)c2ccc(N(C)C)cc2C(c2cccc(NC(=S)Nc3ccc(C[n+]4ccc(C(C)=O)cc4)cc3)c2)N1 (stereo not shown) [Example 3736]
10,70,CCCCC1(CCCC)CS(=O)(=O)c2ccc(N(C)C)cc2C(c2cccc(NC(=S)Nc3ccc(C[N+]4(C)CCCCC4)cc3)c2)N1 (stereo not shown) [Example 3587]
11,73,CCCCCCCCC[N+](C)(C)Cc1ccc(NC(=S)Nc2cccc(C3NC(CCCC)(CCCC)CS(=O)(=O)c4ccc(N(C)C)cc43)c2)cc1 (stereo not shown) [Example 3413]
12,72,CCCCC1(CCCC)CS(=O)(=O)c2ccc(N(C)C)cc2C(c2cccc(NC(=S)Nc3ccc(C[n+]4cccc5ccccc54)cc3)c2)N1 (stereo not shown) [Example 3768]
13,78,CCCCC1(CCCC)CS(=O)(=O)c2ccc(N(C)C)cc2C(c2cccc(NC(=S)Nc3cccc(C[N+]4(C)CCN(C)CC4)c3)c2)N1 (stereo not shown) [Example 4479]
14,70,CCCCC1(CCCC)CS(=O)(=O)c2ccc(N(C)C)cc2C(c2cccc(NC(=S)Nc3ccc(C[n+]4ccccc4)cc3)c2)N1 (stereo not shown) [Example 3708]
15,88,CCCCC1(CCCC)CS(=O)(=O)c2ccc(N(C)C)cc2C(c2cccc(NC(=S)Nc3ccc(C[n+]4cc(C)cc(C)c4)cc3)c2)N1 (stereo not shown) [Example 3729]
16,70,CCCCC1(CCCC)CS(=O)(=O)c2ccc(N(C)C)cc2C(c2cccc(NC(=S)Nc3ccc(C[N+]4(Cc5ccccc5)CCCCC4)cc3)c2)N1 (stereo not shown) [Example 3593]
17,92,CCCCC1(CCCC)CS(=O)(=O)c2ccc(N(C)C)cc2C(c2cccc(NC(=S)Nc3cccc(C[N+]45CCC(c6ccccc6)(CC4)CC5)c3)c2)N1 (stereo not shown) [Example 4513]
18,64,CCCCC1(CCCC)CS(=O)(=O)c2ccc(N(C)C)cc2C(c2cccc(NC(=S)Nc3cccc(C[n+]4cccc(CC)c4)c3)c2)N1 (stereo not shown) [Example 4539]
19,39,CCCCC1(CCCC)CS(=O)(=O)c2ccc(N(C)C)cc2C(c2cccc(NC(=S)Nc3ccc(C[n+]4cccc(CC)c4)cc3)c2)N1 (stereo not shown) [Example 3722]
20,72,CCCCC1(CCCC)CS(=O)(=O)c2ccc(N(C)C)cc2C(c2cccc(NC(=S)Nc3cccc(C[n+]4cc(C)cc(-c5ccccc5)c4)c3)c2)N1 (stereo not shown) [Example 4547]
21,63,CCCCC1(CCCC)CS(=O)(=O)c2ccc(N(C)C)cc2C(c2cccc(NC(=S)Nc3ccc(C[n+]4ccc(CCC)cc4)cc3)c2)N1 (stereo not shown) [Example 3711]
22,92,CCCCC1(CCCC)CS(=O)(=O)c2ccc(N(C)C)cc2C(c2cccc(NC(=S)Nc3ccc(C[n+]4ccc(C(N)=O)cc4)cc3)c2)N1 (stereo not shown) [Example 3754]
